Experimental data taken from US7390830B1, “Remedies or prophylactics for diseases in association with chemokines” (Teijin Limited, priority 1999, dated 2008).

tested on: THP-1 cells; assay: Inhibitory activity against cell chemotaxis caused by MCP-1; type: cell-based; conditions: Homo sapiens, MCP-1 20 ng/mL
Source text: In order to determine the inhibitory activity of the compounds according to the present invention against the cell chemotaxis, human monocytic leukemia cell line THP-1 was used as chemotactic cells according to the method of Fall et al. (J. Immunol. Methods, 1980, 33, 239-247) to determine the cell chemotaxis caused by monocyte chemotactic factor MCP-1 as follows: Namely, 2×10^6 cells/mL of the THP-1 cells [suspended in RPMI-1640 (Flow Laboratories Co.) 10% FCS] were placed in the upper chamber (200 μL) of a 96-well microchemotaxis chamber (Neuroprobe®), and human recombinant MCP-1 (Peprotech Co.) diluted with the same solution so as to provide the final concentration of 20 ng/mL was placed in the lower chamber (35 μL). A polycarbonate filter (PVP-free, Neuroprobe®) was placed between the two chambers. These were incubated in the presence of 5% of CO2 at 37° C. for 2 hours.
The filter was removed, and the cells which had migrated to the undersurface of the filter were immobilized, stained using Diff Quick (Kokusai Shiyaku Co.) and then measured at a measuring wavelength of 550 nm using a plate reader (Molecular Device Co.) to determine the means of 3 wells. Thereby, the indication of the number of cells migrated was obtained. The test compound together with the THP-1 cells was added to the upper chamber at various concentrations to determine the inhibitory activity against cell chemotaxis [degree of inhibition: IC50 (μM)].

IC50, ≤ 0.1 µM:
C=Cc1ccc(CN2CC[C@@H](NC(=O)CNC(=O)c3cc(C(F)(F)F)ccc3N)C2)cc1 [Compd. No. 1701, (R)-3-[[N-(2-amino-5-(trifluoromethyl)benzoyl)glycyl]amino]-1-(4-vinylbenzyl)pyrrolidine]
Nc1cc(CN2CCC(CNC(=O)CNC(=O)c3cc(F)c(F)cc3N)CC2)ccc1O [Compd. No. 2141, 4-[[N-(2-amino-4,5-difluorobenzoyl)glycyl]aminomethyl]-1-(3-amino-4-hydroxybenzyl)piperidine]
Cc1ccc(CN2CCC(CNC(=O)CNC(=O)c3cc(F)c(F)cc3N)CC2)cc1N [Compd. No. 2114, 4-[[N-(2-amino-4,5-difluorobenzoyl)glycyl]aminomethyl]-1-(3-amino-4-methylbenzyl)piperidine]
Nc1cc(CN2CC[C@@H](NC(=O)CNC(=O)c3cc(C(F)(F)F)ccc3N)C2)ccc1Cl [Compd. No. 2132, (R)-1-(3-amino-4-chlorobenzyl)-3-[[N-(2-amino-5-trifluoromethylbenzoyl)glycyl]amino]pyrrolidine]
COc1ccc(CN2CC[C@@H](NC(=O)CNC(=O)c3cc(OC(F)(F)F)ccc3N)C2)cc1O [Compd. No. 1896, (R)-3-[[N-(2-amino-5-trifluoromethoxybenzoyl)glycyl]amino]-1-(3-hydroxy-4-methoxybenzyl)pyrrolidine]
Nc1cc(Cl)ccc1CN1CCC(CNC(=O)CNC(=O)c2cc(C(F)(F)F)ccc2N)CC1 [Compd. No. 1919, 4-[[N-(2-amino-5-trifluoromethylbenzoyl)glycyl]aminomethyl]-1-(2-amino-4-chlorobenzyl)piperidine]
Nc1ccc(Br)cc1C(=O)NCC(=O)NCC1CCN(Cc2ccc(Cl)cc2)CC1 [Compd. No. 1042, 4-[N-(2-amino-5-bromobenzoyl)glycyl]aminomethyl-1-(4-chlorobenzyl)piperidine]
Nc1cc(Cl)ccc1CN1CC[C@@H](NC(=O)CNC(=O)c2cc(OC(F)(F)F)ccc2N)C1 [Compd. No. 1921, (R)-3-[[N-(2-amino-5-trifluoromethoxybenzoyl)glycyl]amino]-1-(2-amino-4-chlorobenzyl)pyrrolidine]
CNc1cc(CN2CC[C@@H](NC(=O)CNC(=O)c3cc(C(F)(F)F)ccc3N)C2)ccc1O [Compd. No. 2158, (R)-3-[[N-(2-amino-5-trifluoromethylbenzoyl)glycyl]amino]-1-(3-methylamino-4-hydroxybenzyl)pyrrolidine]
Cc1noc(C)c1CN1CC[C@@H](NC(=O)CNC(=O)c2cc(F)cc(C(F)(F)F)c2)C1 [Compd. No. 1191, (R)-3-[N-[3-fluoro-5-(trifluoromethyl)benzoyl]glycyl]amino-1-(3,5-dimethylisoxazol-4-ylmethyl)-pyrrolidine]
O=C(CNC(=O)c1cccc(C(F)(F)F)c1)NCC1CCN(Cc2ccc(Cl)cc2)CC1 [Compd. No. 461, 1-(4-chlorobenzyl)-4-[[N-[3-(trifluoromethyl)benzoyl]glycyl]aminomethyl]piperidine]
